Like-named read-outs stand apart in the source and are kept apart here. Ends that are not written are not given here.
Columns and labels:
[1] = test system: animals implanted with Lewis lung carcinoma; details: subcutaneous administration; cited from earlier work
[2] = test system: animals implanted with a colorectal tumor; parameters: method as in PMID 15027849; details: subcutaneous administration; cited from earlier work
[3] = molecular target: MC-4 receptor; parameters: method as in earlier work; details: binding; read-out: IC50 (binding) / affinity on the MC-4 receptor; cited from earlier work
[4] = test system: MC-5; parameters: method as in earlier work; details: MC-4 vs. MC-5; cited from earlier work
[5] = test system: C26 tumor bearing mice; test: C26 adenocarcinoma-induced cachexia model; type: in vivo, BALB/c mice; details: for tumor induced weight loss: 30 mg/kg p.o. once daily starting the day after tumor implantation; for body composition (lean body mass and fat mass) / tumor weight / mice that did not show cachexia (loss of more than 5% of body weight): 30 mg/kg p.o. once daily; for body composition (lean body mass and fat mass): day 0 vs day 15, MRI relaxometry; for tumor weight: end of experiment, mean±SEM, not different from Vehicle+Tumor controls; for mice that did not show cachexia (loss of more than 5% of body weight): n = 9, Vehicle+Tumor controls 2 of 9 and 3 of 9
Protocol: Six week old male BALB/c mice (Harlan, The Netherlands) were used. The animals were single housed, and after a one week adaption period randomly assigned to the experimental or control groups. For the tumor implantation the mice were anaesthetized with 200 µl of ketamine/xylazine. Approximately 1×10^6 C26 cells suspended in phosphate buffered saline were then implanted unilaterally in the flank of the mice by subcutaneous injection. The non-tumor controls underwent the same procedure but received PBS injection only (n = 9 per group). Starting on the first day after tumor implantation, compounds or vehicle were administered orally in 5 ml/kg 1–2 hrs before the onset of the dark phase. Food intake and body weight were recorded daily. Lean and fat mass of each animal were determined by MRI relaxometry (EchoMRI-500, Echo Medical Systems, Houston, TX, USA) prior to tumor inoculation (day 0) and at the end of the experiment after removal of the tumor (typically day 15).

[6] = test system: MC-3; parameters: method as in earlier work; details: MC-4 vs. MC-3; cited from earlier work
[7] = test system: healthy mice; test: Light phase food intake; type: in vivo, NMRI mice; details: for effect on food intake, single dose comparison / effect on food intake: 4 hrs; for effect on food intake, single dose comparison: p<0.01 vs vehicle; for amount of food taken relative to vehicle control group: p.o., four hour post-treatment observation period; for effect on food intake: single oral treatment by gavage, dose range; for effect on food intake / amount of food taken relative to vehicle treated controls: light phase; for amount of food taken relative to vehicle treated controls: single s.c. injection 20 mg/kg, 4 hrs observation, p<0.01
Protocol: Six weeks old female NMRI mice (RCC Ltd.; Füllinsdorf, CH) were randomly assigned to the various experimental groups and the vehicle controls. They were housed in groups of 3 mice per cage. After at least one week of acclimatization in the experimental room, each animal's weight was determined and compound or vehicle was administered at appropriate concentrations 5 hrs after lights on. Then, food consumption of each cage group was recorded by weighing of the food hopper over a period of 4 hrs. Food intake was then determined as the difference in food hopper weight at the beginning and end of the 4 hrs following administration of the compound or the vehicle. Since the amount of food taken over 4 hrs by single animals was close to the limit of detection, we decided to rely on mean food amounts taken per cage (i.e., per 3 mice), whereby each treatment group consisted of n = 6 cages. The measured values from each cage were normalized to 100 g body weight (BW). Previous experiments indicated an excellent correlation between food intake and reduction of food weight.

[8] = Brain and plasma concentrations in vivo; details: 60 mg/kg p.o., CD-1 mice; for Brain AUC / Plasma AUC: 0-6 hr; for Brain/plasma ratio: calculated from AUC
Protocol: Twelve weeks old male CD-1 (Hilltop Lab Animals, PA, USA) mice were dosed by gavage with either SNT207707 or SNT207858 at 60 mg/kg (n = 9 per compound). At 1, 3, and 6 hrs post-dose, 3 mice from each compound group were euthanized with CO2. Blood was collected by cardiac puncture, plasma was isolated immediately and then kept on dry ice until analysis. Brains were removed, rinsed with saline solution and stored at −80°C until analysis. Levels of the compound were determined by HPLC followed by mass spectrometry (MS/MS). Areas under the curve (AUC) of plasma and brain levels were computed from measured levels at 1, 3 and 6 hrs post-dose. Brain/plasma ratios were then calculated based on the AUCs. To assess the integrity of the blood-brain-barrier all animals were co-dosed with 10 mg/kg Atenolol.

[9] = molecular target: MC-4 receptor; parameters: method as in earlier work; details: function; cited from earlier work
[10] = test system: models of cancer-induced anorexia; parameters: method as in PMID 17584133, PMID 15800806; details: central administration; cited from earlier work

Brain AUC [8]	Plasma AUC [8]	Brain/plasma ratio [8]	Plasma peak ([8]; levels at 1, 3, 6 hrs)	Molecule	IC50 [3]	selectivity vs. MC-5 [4]	tumor induced weight loss [5]	body composition (lean body mass and fat mass) [5]	tumor weight [5]	mice that did not show cachexia (loss of more than 5% of body weight) [5]	selectivity vs. MC-3 [6]	effect on food intake, single dose comparison ([7]; p.o. 120 mg/kg)	amount of food taken relative to vehicle control group [7]	effect on food intake [7]	amount of food taken relative to vehicle treated controls [7]	IC50 [9]	food intake [10]	further results
				COc1ccc(Br)cc1CCc1c(F)cccc1C1=NCCN1 [ML00253764, 2-[2-[2-(5-bromo-2-methoxyphenyl)-ethyl]-3-fluorophenyl]-4,5-dihydro-1H-imidazole]														cachexia [1]: efficacious in reducing cachexia; cachexia [2]: efficacious in reducing cachexia
2.307 µM·h	6.373 µM·h	0.36	1960 nM	CC(C)CCN(CCC(C)C)C(=O)c1ccc2nc(-c3ccc(C#N)cc3)c(CCCN3CCCC3)n2c1.Cl [SNT207707]	8 nM	more than 200 fold	significantly reduced the tumor induced weight loss	loss of lean body mass and loss of fat mass was reduced	1.03 ± 0.07 g	8 out of 9	more than 200 fold	statistically significant increases in food intake	roughly up to four times	dose-dependently increased the food intake	roughly 3 fold	5 nM		Brain peak ([8]; levels at 1, 3, 6 hrs): ~580 nM
0.437 µM·h	4.405 µM·h	0.10	1520 nM	CC[C@H](COc1cccnc1C1CCN(C(=O)[C@@H](Cc2ccc(Cl)cc2Cl)NC(=O)N2CCCC2)CC1)N1CCCC1 [SNT207858]	22 nM	40 fold	significantly reduced the tumor induced weight loss	loss of lean body mass and loss of fat mass was reduced	1.11 ± 0.09 g	6 out of 9	170 fold	statistically significant increases in food intake	roughly up to four times	dose-dependently increased the food intake	roughly 3 fold	11 nM		effect on food intake, single dose comparison ([7]; p.o. 60 mg/kg): statistically significant increases in food intake
				AgRP: agouti-related protein, the endogenous inverse agonist at the MC-4 receptor (SSRRCVRLHESCLGQQVPCCDPCATCYCRFFNAFCYCRKLGTAMNPCSRT; ends and bridges not checked; cysteine pairing not given here; UniProt O00253 83-132, looked up)													increased food intake	
				SHU-9119 [reference compound]													increased food intake	

— PMC2654097, “Orally Available Selective Melanocortin-4 Receptor Antagonists Stimulate Food Intake and Reduce Cancer-Induced Cachexia in Mice” (PLoS ONE, 2009)
